Test results reported in patent US8933101B2, “Thia(dia)zoles as fast dissociating dopamine 2 receptor antagonists” (Janssen Pharmaceutica NV, priority 2007, dated 2015).
Structures can show the parent of a compound that is named as a salt.

Row | Structure (SMILES) | melting point
1 | Fc1ccc(CN2CCC(Nc3nc(C(F)(F)F)cs3)CC2)cc1F (as salt: hydrochloride) | 238 °C
2 | Fc1cc(CN2CCC(Nc3nnc(C(F)(F)F)s3)CC2)ccc1C(F)(F)F | 130.2 °C
3 | CN(c1nnc(C(F)(F)F)s1)C1CCN(Cc2cccc(F)c2)CC1 | 80.5 °C

Results, then the molecule that gave them:

Row | melting point | Structure (SMILES)
4 | 211.3 °C | N#Cc1nnc(NC2CCN(Cc3cc(F)c(F)c(F)c3)CC2)s1
5 | 199.4 °C | N#Cc1nnc(NC2CCN(Cc3ccc(F)c(F)c3)CC2)s1
6 | 85.8 °C | CN(c1nnc(C(F)(F)F)s1)C1CCN(Cc2ccc(F)cc2)CC1
7 | 116.3 °C | FC(F)(F)Oc1cccc(CN2CCC(Nc3nnc(C(F)(F)F)s3)CC2)c1
